Measured values from patent US20260345649A1, “PHARMACEUTICAL COMPOSITION FOR DESTRUCTION OF TUMOR BLOOD VESSELS” (SAMSUNG MEDICAL FOUNDATION, priority 2022, published 2026).

How the values were obtained:
HUVEC [1] = assay: Intracellular ROS generation in HUVEC (DCF-DA staining); type: cell-based, human
Experimental: The effect of D-glucose on intracellular reactive oxygen species (ROS) generation in HUVEC was measured using the DCF-DA staining method. HUVEC cells (25,000 per well) were cultured in a 96-well microplate with a dark, clear bottom. After 24 hours of incubation, the cells were treated with D-glucose at concentrations of 10 mM, 25 mM, 50 mM, 100 mM, 125 mM, 150 mM, 200 mM, and 250 mM. Following drug treatment, the culture medium was removed, and the cells were washed with 100 μL/well of Hanks' Balanced Salt Solution (HBSS) buffer. After washing, 100 μL/well of diluted DCFDA was added, and the […]. The cells were then incubated in diluted DCFDA solution for 45 minutes at 37 °C in the dark. Following incubation, the DCFDA solution was removed, and 100 μL of HBSS buffer was added. Fluorescence was immediately measured using a fluorescence plate reader at Ex/Em=485/535 nm.
The effect of L-glucose on intracellular ROS generation was measured using the same method as for D-glucose.

HUVEC [2] = assay: 5-FU cytotoxicity on HUVEC according to D-glucose or L-glucose concentration (MTS); type: cell-based, human
Experimental: An MTS cell proliferation assay was conducted to evaluate the cytotoxic effect of 5-FU on HUVEC according to D-glucose concentration under different pH conditions.
The cells were then incubated for an additional 24 hours in DMEM medium containing various concentrations of glucose.
To assess the cytotoxic effect of L-glucose on HUVEC, the experiment was conducted in the same manner as described in Example 2, Section 3.
To assess the cytotoxic effect of D-glucose or L-glucose on HUVEC, the experiment was conducted in the same manner as described in Example 2, Section 3.

HUVEC [3] = assay: HUVEC cytotoxicity according to L-NMMA concentration (MTS); type: cell-based, human; settings: L-NMMA alone, FIG. 19
Experimental: The cells were then incubated for an additional 24 hours in DMEM medium containing various L-NMMA concentrations. Following incubation, the cells were washed twice with PBS, and 100 μL of fresh DMEM growth medium was added. The cells were then further incubated for 48 hours.

blood pressure = settings: administered into blood vessels; cited from earlier work
platelets = settings: L-NMMA alone, physiological conditions; cited from earlier work
hexokinase = settings: role: substrate; first enzyme in glycolysis; cited from earlier work
human body = settings: in vivo; cited from earlier work
[4] = tested on: human gastric cancer cells; assay: Human gastric cancer cell xenograft in nude mice, bevacizumab local injection; type: in vivo, nude mice (Crj: BALB/c-nu/nu), human tumor cells; settings: 1 mg bevacizumab, three times at one-week intervals
Experimental: The animals used in the experiment were three male nude mice (Crj: BALB/c-nu/nu, male), each weighing approximately 30 g and five weeks old, produced by Orient. The mice underwent a one-week acclimatization period in the laboratory before use. Human gastric cancer cells (5×10^6 cells/100 μL in PBS) were xenografted into the subcutaneous fat layer on the dorsal side of each nude mouse. The tumor size was measured periodically, and drug administration was initiated when the tumor reached a diameter of 1 cm.
The experimental animals were administered 1 mg of bevacizumab by injecting 0.2 cc adjacent to the tumor three times at one-week intervals.

advanced gastric cancer = settings: combined with fluoropyrimidine-cisplatin therapy; cited from earlier work
[5] = D-glucose, L-glucose and mixtures with 5-FU, FIG. 15

In the case of `O=C[C@H](O)[C@@H](O)[C@H](O)[C@H](O)CO` [D-glucose], the “ROS generation with increasing concentration” value (HUVEC [1]; D-glucose 10 mM to 250 mM, FIG. 11A) was “increased”, the cell viability (HUVEC [2]; D-glucose at both 5 mM and 25 mM, FIG. 13) was “significantly reduced cell viability” and the cell viability (HUVEC [2]; [5]) was “significantly reduced cell viability”.

For `CN=C(N)NCCC[C@H](N)C(=O)O` [L-NMMA, N^G-Methyl-L-arginine], the cell viability (HUVEC [3]) is given as “significantly reduced cell viability”, the blood pressure (blood pressure) is given as “effectively increases blood pressure” and the “platelet activation in vivo” value (platelets) is given as “does not activate platelets in vivo”.

With `O=C[C@@H](O)[C@H](O)[C@@H](O)[C@@H](O)CO` [L-glucose] the “ROS generation with increasing concentration” value (HUVEC [1]; L-glucose, FIG. 11B) was “decreased”, the cell viability (HUVEC [2]; [5]) was “significantly reduced cell viability” and the “cell viability, comparison among D-glucose, L-glucose and mixtures” value (HUVEC [2]; FIG. 15) was “more pronounced reduction in cell viability”. The cell viability (HUVEC [2]; L-glucose at both 5 mM and 25 mM, FIG. 14) was “significantly reduced cell viability”, the phosphorylation by hexokinase (hexokinase) was “not phosphorylated by hexokinase” and the “toxicity to the human body” value (human body) was “non-toxic to the human body”.

For “bevacizumab: recombinant humanized monoclonal antibody designed to inhibit vascular endothelial growth factor (VEGF)”, the “tumor size for the following two months” value [4] was “did not change”, the “tumor size in the third month” value [4] was “began to increase” and the “tumor size four weeks after drug administration compared to before injection” value ([4]; P>0.05, FIG. 20) was “remained nearly unchanged”. The “progression-free survival and overall response rate” value (advanced gastric cancer) was “improves progression-free survival and overall response rate”.
